Assays:
Bile salt export pump [1] = molecular target: T1, Bile salt export pump (Homo sapiens, UniProt O95342); assay: Inhibition of recombinant human BSEP expressed in baculovirus infected sf21 cell plasma membrane vesicles assessed as reduction in ATP-dependent [3H]-taurocholate uptake in to vesicles after 5 mins by microbeta filtration method; type: ADME
Liver = type: ADME, mitochondria, Rattus norvegicus, Sprague-Dawley
clinical = details: human
[2] = Induction of mitochondrial dysfunction in liver mitochondria (unknown origin) assessed as inhibition of mitochondrial respiration
Bile salt export pump [3] = molecular target: T1, Bile salt export pump; assay: Inhibition of BSEP (unknown origin); type: ADME
Bile salt export pump [4] = molecular target: T1, Bile salt export pump; type: ADME; details: read-out: IC50
Bile salt export pump [5] = molecular target: T1, Bile salt export pump; assay: Inhibition of recombinant human BSEP expressed in baculovirus infected sf9 cell plasma membrane vesicles assessed as reduction in ATP-dependent [3H]-taurocholate uptake in to vesicles preincubated for 10 mins followed by ATP addition measured after 10 to 15 mins by TopCount method; type: ADME

T1 sequence (O95342 whole entry): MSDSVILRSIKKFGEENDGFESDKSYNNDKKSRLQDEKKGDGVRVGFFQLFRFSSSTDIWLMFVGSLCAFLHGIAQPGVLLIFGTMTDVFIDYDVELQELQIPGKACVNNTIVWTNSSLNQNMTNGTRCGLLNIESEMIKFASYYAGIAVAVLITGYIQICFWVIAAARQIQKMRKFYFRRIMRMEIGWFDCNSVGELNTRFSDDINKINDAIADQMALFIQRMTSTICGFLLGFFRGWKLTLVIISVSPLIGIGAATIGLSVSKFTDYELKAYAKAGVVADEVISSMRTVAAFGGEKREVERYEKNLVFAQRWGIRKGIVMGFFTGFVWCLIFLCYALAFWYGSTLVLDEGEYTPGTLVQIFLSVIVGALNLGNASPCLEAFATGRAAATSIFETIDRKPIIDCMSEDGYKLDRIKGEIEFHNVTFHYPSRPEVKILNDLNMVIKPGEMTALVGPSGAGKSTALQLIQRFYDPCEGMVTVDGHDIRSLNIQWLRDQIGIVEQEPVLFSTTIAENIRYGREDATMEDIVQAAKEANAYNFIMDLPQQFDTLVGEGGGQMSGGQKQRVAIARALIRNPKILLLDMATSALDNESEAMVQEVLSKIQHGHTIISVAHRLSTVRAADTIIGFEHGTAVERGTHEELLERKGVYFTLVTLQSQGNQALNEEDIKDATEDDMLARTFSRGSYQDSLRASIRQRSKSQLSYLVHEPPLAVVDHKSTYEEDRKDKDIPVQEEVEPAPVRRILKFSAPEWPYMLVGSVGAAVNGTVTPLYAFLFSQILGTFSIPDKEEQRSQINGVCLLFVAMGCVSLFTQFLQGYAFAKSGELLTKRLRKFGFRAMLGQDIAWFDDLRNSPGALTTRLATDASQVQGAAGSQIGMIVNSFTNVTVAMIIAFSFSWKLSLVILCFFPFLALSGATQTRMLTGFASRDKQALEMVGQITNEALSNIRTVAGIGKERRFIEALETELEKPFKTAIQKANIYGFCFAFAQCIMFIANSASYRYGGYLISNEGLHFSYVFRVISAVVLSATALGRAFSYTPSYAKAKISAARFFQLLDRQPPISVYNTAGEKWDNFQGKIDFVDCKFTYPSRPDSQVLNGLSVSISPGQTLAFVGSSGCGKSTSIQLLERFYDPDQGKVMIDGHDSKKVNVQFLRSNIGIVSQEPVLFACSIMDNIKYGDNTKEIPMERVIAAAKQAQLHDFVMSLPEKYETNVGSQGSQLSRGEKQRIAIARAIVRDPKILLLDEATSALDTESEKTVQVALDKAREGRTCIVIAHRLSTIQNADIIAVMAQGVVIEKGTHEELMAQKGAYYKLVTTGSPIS

Row | Compound | IC50 (Bile salt export pump [1]) | IC50 (Liver) | Cmax (clinical) | IC50 [2] | IC50 (Bile salt export pump [3]) | IC50 (Bile salt export pump [4]) | IC50 (Bile salt export pump [5])
1 | C[N+](C)(C)CC(=O)O [BETAINE] | > 1000 µM | Non-Toxic | 599 µM | – | – | – | –
2 | COCC(=O)NC/C=C/c1ccc2ncnc(Nc3ccc(Oc4ccc(C)nc4)c(C)c3)c2c1 [CP-724714] | – | – | – | 45 nmol/mg | – | – | –
3 | CCOC(=O)[C@@]1(CCCCCCOc2ccc(Cl)cc2)CO1 [ETOMOXIR] | – | – | – | – | 11.8 µM | – | –
4 | C[C@@H]1C[C@H]2[C@@H]3CCC4=CC(=O)C=C[C@]4(C)[C@@]3(Cl)[C@@H](O)C[C@]2(C)[C@@]1(O)C(=O)CCl [MOMETASONE] | – | Non-Toxic | 0.0003 µM | – | – | 9.3 µM | –
5 | CO[C@H]1/C=C/O[C@@]2(C)Oc3c(C)c(O)c4c(O)c(c(/C=N/N5CCN(C)CC5)c(O)c4c3C2=O)NC(=O)/C(C)=C\C=C\[C@H](C)[C@H](O)[C@@H](C)[C@@H](O)[C@@H](C)[C@H](OC(C)=O)[C@@H]1C [RIFAMPIN] | – | Non-Toxic | 8.5 µM | – | – | 18.7 µM | –
6 | CO[C@H]1/C=C/O[C@@]2(C)Oc3c(C)c(O)c4c(O)c(cc(O)c4c3C2=O)NC(=O)/C(C)=C\C=C\[C@H](C)[C@H](O)[C@@H](C)[C@@H](O)[C@@H](C)[C@H](OC(C)=O)[C@@H]1C [RIFAMYCIN] | – | Non-Toxic | 2.78 µM | – | – | 9.5 µM | –
7 | CN(CCOc1ccc(CC2SC(=O)NC2=O)cc1)c1ccccn1 (stereo not drawn) [ROSIGLITAZONE] | – | – | 1.04 µM | – | – | – | 3.75 µM
8 | CN[C@@H]1[C@H](O[C@H]2[C@H](O[C@H]3[C@H](O)[C@@H](O)[C@H](N=C(N)N)[C@@H](O)[C@@H]3N=C(N)N)O[C@@H](C)[C@]2(O)C=O)O[C@@H](CO)[C@H](O)[C@H]1O [STREPTOMYCIN] | > 1000 µM | Non-Toxic | 64.5 µM | – | – | – | –
9 | O=C1C(CC[S+]([O-])c2ccccc2)C(=O)N(c2ccccc2)N1c1ccccc1 (stereo not drawn) [SULFINPYRAZONE] | – | Non-Toxic | 44.2 µM | – | – | 11 µM | –
10 | CC[C@H]1OC(=O)[C@H](C)C(=O)[C@H](C)[C@@H](O[C@@H]2O[C@H](C)C[C@H](N(C)C)[C@H]2O)[C@](C)(OC)C[C@@H](C)C(=O)[C@H](C)[C@H]2N(CCCCn3cnc(-c4cccnc4)c3)C(=O)O[C@]12C [TELITHROMYCIN] | – | Non-Toxic | 2.77 µM | – | – | 30 µM | –
11 | O=c1n(CCCN2CCN(c3cccc(Cl)c3)CC2)nc2ccccn12 [TRAZODONE] | – | Non-Toxic | 5.06 µM | – | – | 90 µM | –

Source: ChEMBL document CHEMBL4011582, “Human drug-induced liver injury severity is highly associated with dual inhibition of liver mitochondrial function and bile salt export pump” (Hepatology, 2014)
